This note sets out measurements from patent US8912146B2, “Derivatives of APF and methods of use” (University of Maryland, Baltimore, priority 2008, dated 2014).

SMILES strings stand for the structures. “Also recorded” adds a separate entry of the source. Like-named read-outs stand apart in the source and are kept apart here.

The subject of assay [1] is primary normal human bladder epithelial cells. In words: 3H-thymidine incorporation (antiproliferative activity) in primary normal bladder epithelial cells. The class given is cell-based. As for the experimental part: Cell Culture. Cystoscopy was performed under general anesthesia, and 4-mm^2 pieces of transitional epithelium with submucosal bladder tissue were obtained for the growth of primary bladder epithelial cells, as previously described (Keay et al., 1996; 2004). Primary normal bladder epithelial cells were propagated in DMEM-F12 (Media-Tech, Herndon Va.) with 10% heat-inactivated fetal bovine serum (FBS), 1% antibiotic/antimycotic solution, 1% L-glutamine, 0.25 units/mL insulin (all from Sigma, St. Louis, Mo.), and 5 ng/mL hEGF (R&D Systems, Minneapolis, Minn.) at 37° C. in a 5% CO2 atmosphere and characterized by binding of AE-1/AE-3 pancytokeratin antibodies (Signet, Dedham, Mass.).
^3H-Thymidine Incorporation. Cell proliferation was measured by ^3H-thymidine incorporation into explanted normal human bladder epithelial cells, plating 1.5×10^4 cells/well onto a 96 well cell culture plate (VWR 29442-054), in 150 ul/well MEM containing 10% heat inactivated FBS, 1% antibiotic/antimycotic solution, and 1% L-glutamine (all from Sigma), resulting in a doubling time of 48-72 hours, as previously described (Keay et al., 1996; 2004). Each purified lyophilized synthetic APF congener was resuspended in acetonitrile/distilled water (1:1), and applied to the cells in serum-free MEM (containing only L-glutamine and antibiotics/antimycotics); cell controls received acetonitrile/distilled water diluted in serum-free MEM alone. Cells were then incubated at 37° C. in a 5% CO2 atmosphere for 48 hours. The cell contents harvested and methanol-fixed onto glass fiber filter paper, and the amount of radioactivity incorporated determined. Significant inhibition of ^3H-thymidine incorporation was defined as a mean decrease in counts per minute of greater than 2 standard deviations from the mean of control cells for each plate. Inhibition of cell proliferation was determined from a semi-log plot of dose-response for each APF derivative; IC50 was determined as the concentration of each derivative that caused a mean 50% inhibition of thymidine incorporation as compared to the mean of untreated cell controls.
Statistical Analysis. The thymidine incorporation (APF biological activity) assay was performed in triplicate on at least two separate runs, with 1 run simultaneously in triplicate on the same plate. The significance of the difference between mean values for each congener vs. mean values for compound 1 was determined by an analysis of variance.

The subject of assay [2] is APF activity in normal bladder epithelial cells. In words: Inhibition of APF antiproliferative activity in as-APF-treated normal bladder epithelial cells (3H-thymidine). The assay is classed as cell-based, human. The settings on record: pretreatment, then as-APF (0.25 or 0.025 μM; 25 nM in FIG. 54), normal and/or IC/PBS bladder cells. As for the experimental part:
Explanted cells grown from the biopsies of normal controls were plated on Day 0 at 1.5×10^4 cells/well onto a 96-well cell culture plate (VWR 29442-054), in 150 μL/well MEM containing 10% heat-inactivated FBS, 1% antibiotic/antimycotic solution, and 1% L-glutamine (all from Sigma), serum starved on Day 1, and treated with varying concentrations of D-pipecolic acid diluted in phosphate buffered saline (PBS) for 2 hours at 37° C. in a 5% CO2 atmosphere. […] The cell contents were then harvested and methanol-fixed onto glass fiber filter paper, and the amount of radioactivity incorporated was determined. Significance of the difference in mean values between groups was determined by an analysis of variance.
IC/PBS cells were incubated with varying concentrations of two derivatives shown to inhibit APF activity in normal bladder cells—GalGalNAc-TV(D-pipecolic acid) AAVVVA (SEQ ID NO:14) and GalGalNAc-TV (D-proline)AAVVVA (SEQ ID NO:27). Cell proliferation was determined by ^3H-thymidine incorporation; gene expression by quantitative RT-PCR; specific protein expression by Western blot analysis; tight junction formation by confocal immunofluorescence microscopy; and paracellular permeability by ^14C-mannitol and ^3H-inulin flux between confluent cells on Transwell plates. Significance of the difference in mean values between groups was determined by an analysis of variance for each assay. […]

Assay [3] has as its system ZO-1, occludin, claudin 1, 4, 8, 12 mRNA in IC/PBS cells. In words: qRT-PCR of tight junction protein mRNA in IC/PBS cells. The class given is cell-based, human. The following applies: 16 or 30 day treatment. As for the experimental part: Total RNA was extracted from IC/PBS and normal control epithelial cell explants using the RNEasy Plus Mini Kit (Qiagen) according to the manufacturer's protocol. Quantitative real time RT-PCR for tight junction gene expression was performed using Quantitect Primers (Qiagen), SYBR Green RT-PCR kit reagents (Qiagen), and a Roche 480 Light-Cycler. Samples were tested in triplicate runs, and specific mRNA levels quantified and compared to mRNA levels for β-actin using LightCycler 480 real-time PCR analysis software (version 1.5).
For the permeability assay, the percentage of total counts in the basal medium was determined in four experiments (using different IC/PBS cell donors), and expressed as mean±standard deviation. Crossover point analysis was performed for qRT-PCR data, and expression of each gene was quantified relative to β-actin; this value was expressed as mean±standard error of the mean for duplicate runs performed on two separate occasions. ^3H-thymidine incorporation was determined in triplicate on two separate occasions, and the CPM expressed as mean±standard deviation.

For the compound `CC(=O)NC1C(O[C@@H]2OC(CO)[C@H](O)C(O)C2O)[C@@H](O)C(CO)O[C@@H]1OC(C)[C@H](N)C(=O)NC(C(=O)N1CCCC1C(=O)NC(C)C(=O)N[C@@H](C)C(=O)NC(C(=O)N[C@H](C(=O)NC(C(=O)N[C@@H](C)C(=O)O)C(C)C)C(C)C)C(C)C)C(C)C` (stereo in doubt) [Derivative 8, GalGalNAc-TV(D-proline)AAVVVA], the “antiproliferative activity compared with as-APF (1), in words” value in assay [1] was “completely abolished activity”; in assay [1] (listed as D-proline APF) it was “Neither D-proline APF nor D-pipecolic acid APF had any intrinsic antiproliferative activity”. The “% of activity” value in assay [1] (relative to 1 (as-APF) run on the same plate, from IC50, inactive = no significant activity at <25 μM) was “inactive”. Further, the “inhibition of APF antiproliferative activity” value in assay [2] is “blocked APF antiproliferative activity”; in assay [2] (listed as D-proline APF), “inhibit the effect of as-APF on normal bladder epithelial cell proliferation; also recorded: inhibited this activity in nanomolar concentrations in a dose-dependent manner”. For the same compound, the entries for the “tight junction protein (ZO-1, occludin, claudins) mRNA expression in IC/PBS cells” value in assay [3] (listed as D-proline), in assay [3] (listed as D-proline APF) and in assay [3] (listed as GalGalNAc-TV-(D-proline)-AAVVVA) were “significantly (p<0.05) stimulate mRNA expression”, “stimulation of tight junction protein expression” and “significantly increased”, respectively.
